{"source": "patent US8679499B2", "about": "“Methods for relieving asthma-associated airway hyperresponsiveness” (The Board of Trustees of the Leland Stanford Junior …, priority 2004, dated 2014)", "key": {"[1]": {"test_system": "NKT cells", "assay": "Oral administration of β-galactosyl ceramide: serum cytokines and liver NKT cell markers", "type": "in vivo, mouse", "method": "Doses of β-galactosyl ceramide ranging from 100-800 μg/mouse were administered orally. Cytokine levels of IFN-γ and IL-4 were determined by ELISA as previously described by Zeng et al. (2003), supra. from serum levels."}, "[2]": {"test_system": "NKT cells", "assay": "Serum IFN-γ and IL-4 (ELISA) after i.p. glycolipid injection; NKT cell activation in vivo", "design": "species or system C57BL/6 mice", "details": "6 hours", "method": "The i.p. injection of a galactosyl ceramide (obtained from Brigham Young University, Provo, Utah) into C57BL/6 mice increases serum levels of IL-4 and IFN-γ by selectively activating NKT cells. Injection of C12 β galactosyl ceramide (Avanti Lipids, Inc.) i.p. antagonizes the ability of α galactosyl ceramide to raise the levels of IL-4, interferon-gamma, and IgE in the serum of these mice.\nMale C57BL/6 mice of about 8 weeks of age were given either 100 μg of β galactosyl ceramide (β Galcer) i.p., 0.1 μg of α galactosyl ceramide (α Galcer) i.p., 100 μg β Galcer i.p. either 1 hour before or at the same time as 0.1 μg α Galcer i.p., or no treatment. β-Galcer was obtained from Avanti Lipids Inc. Glycolipids were in aqueous solutions with PBS. Cytokine levels were determined by ELISA as previously described by Zeng et al. (2003), supra."}, "[3]": {"test_system": "NZBxNZW mouse", "assay": "Murine model for systemic lupus erythematosus, proteinuria", "type": "in vivo", "details": "high dose (100 μg/mouse) injected twice weekly, at 38 weeks; PBS control approximately 30%", "method": "In a murine model for systemic lupus erythematosus, the NZBxNZW mouse, animals were injected twice weekly with one of: PBS, 50 μg/mouse β-galactosyl ceramide, or 100 μg/mouse β-galactosyl ceramide. The animals were analyzed for proteinuria, which is an indication of the development of lupus. In the control group of 15 mice, at 38 weeks, approximately 30% of the mice were without proteinuria, while approximately 80% of the mice treated with the high dose of β-galactosyl ceramide were without proteinuria."}, "[4]": {"test_system": "OVA-immunized BALB/c mice", "assay": "OVA/alum induced AHR, murine model of asthma", "type": "in vivo", "method": "(§1) In murine model of asthma, β-GalCer was administered to OVA-immunized BALB/c mice, or mice with α-GalCer induced airway hyperresponsiveness (AHR).\n(§2) Immunizations. BALB/c mice were primed in the footpads with OVA (100 μg/mouse) adsorbed to 200 μg of alum (Al[OH]3). Mice were challenged with 50 μg OVA in 50 μl NaCl 0.9% intranasally 7, 8, and 9 days later. One day after the last intranasal challenge with OVA, airway hyperreactivity was measured from conscious mice after inhalation of increasing concentrations of methacholine in a whole body plethysmograph Immunization with α-GalCer was performed as described.\nCytokine ELISA. ELISAS were performed as previously described Macaulay et al. (1998) J. Immunol. 160:1694-1700. The antibody pairs used were as follows, listed by capture/biotinylated detection: IL-4, BVD4-1D11/BVD6-24G2; IFN-γ, R4-6A2/XMG1.2. Recombinant cytokine were used as standards, with curves generated in 1:2 dilutions from […] to 39 pg/ml for IL-4, and 20-2, 156 ng/ml for IFN-γ.\nMeasurement of anti-OVA antibody isotypes. Mice were bled at the time of sacrifice and OVA-specific antibody was measured using a modified antigen-specific ELISA. For measurement of OVA specific IgG, plates were coated overnight with 5 μg/ml OVA. After washing and blocking, serial diluted sera were added to the plates. Following overnight incubation, the plates were developed using HRPO-conjugated goat anti-IgG subclass-specific antibodies (Southern Biotechnology Associates, Birmingham, Ala.). After additional washing, OPD substrate was added, the plates developed and the OD determined at 492 nm Anti-OVA IgG1 mAb 6C1 and anti-OVA IgG2a mAb 3A11 were used as standards for quantitation of each IgG subclass. Determination of OVA-specific IgE was performed by ELISA, using rat anti-mouse IgE mAb EM95 (5.0 μg/ml) to coat plates. After the samples were applied and incubated overnight, plates were washed and biotinylated OVA (10 μg/ml) was added. Two hours later, plates were washed and HRPO-conjugated streptavidin (Southern Biotechnology Associates) was added. Plates were developed with OPD substrate and the OD determined at 492 nm Sera from mice hyperimmunized with OVA in alum was quantitated for IgE and used as standard for the OVA-specific IgE ELISA.\n(§3) Measurement of Airway Responsiveness. Airway responsiveness was assessed by methacholine-induced airflow obstruction from conscious mice placed in a whole body plethysmograph (model PLY 3211, Buxco Electronics Inc., Troy, N.Y.). Pulmonary airflow obstruction was measured by Penh using the following formula:\n(§4) [formula] where Penh=enhanced pause (dimensionless), Te=expiratory time, RT=relaxation time, PEF=peak expiratory flow (mI/s), and PIF=peak inspiratory flow (mI/s) (Hamelmann et al. (1997) Am. J. Respir. Crit. Care Med. 156:766-75. Enhanced pause (Penh), minute volume, tidal volume, and breathing frequency were obtained from chamber, pressure, measured with a transducer (model TRD5100) connected to preamplifier modules (model MAX2270) and analyzed by system XA software (model SFT 1810). Measurements of methacholine responsiveness were obtained by exposing mice for 2 min to NaCI 0.9%\n(§5) Collection of BAL Fluid and Lung Histology. Animals were injected i.p. with a lethal dose of phenobarbital (450 mg/kg). The trachea was cannulated, and the lung was then lavaged with 0.8 ml of PBS three times, and the fluid pooled. Cells in the lavage fluid were counted using a hemocytometer and BAL cell differentials were determined on slide preparations stained with Hansel Stain (Lide Laboratories, Florissant, Mo.). At least 200 cells were differentiated by light microscopy based on conventional morphologic criteria. In some animals, no BAL was performed but lungs were removed, washed with PBS, fixed in 10% formalin and stained with hematoxylin and eosin.\n(a) AHR was measured on day 10. C12-β-GalCer was administered i.v. (100 μg) 1 day prior to OVA/alum sensitization and 6 hours prior to each i.n. challenge (100 μg). […]"}, "[5]": {"test_system": "NKT cells", "assay": "Serum IgE and IgG2c before and 10 days after a single i.p. glycolipid injection", "type": "in vivo, C57BL/6 mice", "method": "In a separate experiment, mean serum IgE levels of groups of three C57BL/6 mice were measured before or 10 days after a single i.p. injection of 0.1 μg α Galcer alone, 100 μg β Galcer alone, or 100 μg of β Galcer injected 1 hour before 0.1 μg α Galcer. […] The bars show means of triplicate determinations, and the brackets show standard deviations. […] We conclude that β Galcer blocks the increase in serum IgE levels induced by α Galcer. No significant change is seen with the control IgG2c expression."}, "[6]": {"test_system": "mice with α-GalCer induced airway hyperresponsiveness (AHR)", "assay": "α-GalCer induced airway hyperresponsiveness (AHR), methacholine whole body plethysmograph", "type": "in vivo, BALB/c mice", "method": "as §1, §2, §3, §4, §5\nA minimum of 4 mice per group were used."}, "[7]": {"details": "glycolipid alone i.p. (100 μg β Galcer or 0.1 μg α Galcer), untreated about 50 pg/ml"}, "[8]": {"details": "C12-β-GalCer treated group versus OVA/alum positive control"}, "[9]": {"details": "C12-β-GalCer treated group, four days in culture with 62.5 μg/ml OVA"}}, "note": "Entries after “also recorded” stand apart in the source; their conditions may differ."}
{"smiles": "CCCCCCCCCCCCC/C=C/[C@@H](O)[C@H](CO[C@@H]1O[C@H](CO)[C@H](O)[C@H](O)[C@H]1O)NC(=O)CCCCCCCCCCC", "note": "[β Galcer, C12 β galactosyl ceramide]", "values": [{"measurement": "staining for NKT cell markers in the liver", "setting": "[1]; oral administration, FIG. 5", "value": "decreased staining for NKT cell markers in the liver"}, {"measurement": "serum IL-4 level", "setting": "[1]; oral, 100-800 μg/mouse", "value": "A similar pattern was observed"}, {"measurement": "serum IFN-γ level", "setting": "[1]; oral, 100-800 μg/mouse, 24 hours after administration", "value": "no increase in serum levels at any dose"}, {"measurement": "serum IL-4 level", "setting": "[2]; 100 μg β Galcer alone i.p., untreated about 100 pg/ml", "value": "did not increase the level"}, {"measurement": "serum IL-4 level", "setting": "[2]; 100 μg β Galcer and 0.1 μg α Galcer given at the same time", "value": "about 250 pg/ml"}, {"measurement": "serum IFN-γ level", "setting": "[2]; 100 μg β Galcer i.p. 1 hour before 0.1 μg α Galcer i.p.", "value": "below 40 pg/ml"}, {"measurement": "serum IFN-γ level", "setting": "[2]; 100 μg β Galcer i.p. at the same time as 0.1 μg α Galcer i.p.", "value": "below 40 pg/ml"}, {"measurement": "increase of serum IL-4 induced by α Galcer", "setting": "[2]; 100 μg β Galcer one hour before 0.1 μg α Galcer", "value": "completely blocked"}, {"measurement": "serum IFN-γ level", "setting": "[2]; [7]", "value": "did not increase the level"}, {"measurement": "mice without proteinuria", "setting": "[3]", "value": "approximately 80%"}, {"measurement": "AHR", "setting": "[4]; C12-β-GalCer 100 μg i.v. 1 day prior to OVA/alum sensitization and 6 hours prior to each i.n. challenge, AHR day 10", "value": "reduce AHR; also recorded: reduces OVA/alum induced AHR"}, {"measurement": "eosinophilic infiltration of the lungs (histology)", "setting": "[4]; [8]", "value": "reduced but present"}, {"measurement": "neutrophilia in the lungs (histology)", "setting": "[4]; [8]", "value": "possibly more neutrophilia"}, {"measurement": "serum OVA-specific IgE", "setting": "[4]; C12-β-GalCer treated group, 100 μg i.v.", "value": "reduced"}, {"measurement": "IFN-γ produced by lymph node cells", "setting": "[4]; [9]", "value": "slightly more IFN-γ"}, {"measurement": "IL-4 produced by lymph node cells", "setting": "[4]; [9]", "value": "less IL-4"}, {"measurement": "synthesis of IgG2c (control)", "setting": "[5]; treatment with β-Galcer, FIG. 1D", "value": "not affected"}, {"measurement": "AHR", "setting": "[6]; 50 μg i.n. and i.v. 2 hours prior to 0.5 μg α-GalCer i.n., 24 hours AHR", "value": "greatly reduces 24 hours AHR"}, {"measurement": "AHR", "setting": "[6]; 100 μg C12-β-GalCer i.v. 2 hours prior to 1.5 μg α-GalCer i.n., AHR at 24 hours", "value": "greatly reduces AHR; also recorded: blocks α-GalCer induced AHR"}, {"measurement": "AHR induced by the agent itself", "setting": "[6]; C12-β-GalCer administered i.n.", "value": "induces mild AHR"}, {"measurement": "AHR induced by the agent itself", "setting": "[6]; C12-β-GalCer i.v. alone", "value": "does not induce any AHR"}, {"measurement": "peri-bronchiolar eosinophilic inflammation (histology)", "setting": "[6]; C12-β-GalCer treatment", "value": "reduced peri-bronchiolar eosinophilic inflammation"}, {"measurement": "serum IFN-γ", "setting": "[6]; following α-GalCer induced AHR", "value": "more serum IFN-γ"}, {"measurement": "lung inflammation (histology)", "setting": "[6]; i.v. injection of C12-β-GalCer by itself", "value": "does not result in any lung inflammation"}]}
{"smiles": "CCCCCCCCCCCCCCCCCCCCCCCCCC(=O)N[C@@H](CO[C@H]1O[C@H](CO)[C@H](O)[C@H](O)[C@H]1O)[C@H](O)[C@H](O)CCCCCCCCCCCCCC", "note": "[α Galcer, α galactosyl ceramide, reference compound]", "values": [{"measurement": "serum IL-4 level", "setting": "[2]; 0.1 μg α Galcer alone i.p.", "value": 1000, "unit": "pg/mL"}, {"measurement": "increase of serum IL-4 level", "setting": "[2]; 0.1 μg α Galcer alone i.p., versus untreated", "value": "about 10 fold"}, {"measurement": "serum IFN-γ level", "setting": "[2]; [7]", "value": "increased the level more than two fold"}, {"measurement": "rise of serum IgE level", "setting": "[5]; 0.1 μg α Galcer alone i.p., 10 days after versus before", "value": "about three fold"}]}
